Reference: patent publication US10988478B1, “Pyrazolo[1,5a]pyrimidine derivatives as IRAK4 modulators” (Genentech, Inc., priority 2015, dated 2021)

Biological target: human IRAK4 (Homo sapiens (Human), UniProt Q9NWZ3)
Assay: IRAK4 kinase inhibition, Transcreener fluorescence polarization ADP assay
Type: biochemical
Conditions: recombinant full-length His6-IRAK4; 125 uM ATP; 90 min; Ki computed using ATP Km 642 uM
Method: Compounds were assayed for inhibition of human IRAK4 and IRAK1 catalytic activity using recombinant enzyme produced from insect cells. Full-length IRAK4 protein, carrying an N-terminal His6-Tag, was obtained from Life Technologies (Carlsbad, Calif., USA). The IRAK1 construct was produced internally and was comprised of IRAK1 residues Arg194 to Ser712, preceded by an NH2-terminal His6 tag and the coding sequence for glutathione-S-transferase.

human IRAK4, sequence (Q9NWZ3 whole entry): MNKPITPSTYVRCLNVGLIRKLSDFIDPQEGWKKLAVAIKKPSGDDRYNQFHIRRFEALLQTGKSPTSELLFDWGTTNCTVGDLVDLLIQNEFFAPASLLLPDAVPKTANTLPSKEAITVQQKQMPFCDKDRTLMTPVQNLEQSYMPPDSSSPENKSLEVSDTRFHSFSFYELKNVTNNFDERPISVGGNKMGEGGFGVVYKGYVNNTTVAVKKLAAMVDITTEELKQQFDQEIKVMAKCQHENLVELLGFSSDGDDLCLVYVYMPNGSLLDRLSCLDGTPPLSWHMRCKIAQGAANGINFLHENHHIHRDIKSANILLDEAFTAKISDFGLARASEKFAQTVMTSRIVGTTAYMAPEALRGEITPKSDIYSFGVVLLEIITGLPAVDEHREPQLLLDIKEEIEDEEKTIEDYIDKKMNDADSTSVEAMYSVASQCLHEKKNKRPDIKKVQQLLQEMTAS

Row | Compound | Ki
1 | CC(C)(O)CN1Cc2cc(NC(=O)c3cnn4cccnc34)c(N3CCOCC3)cc2S1(=O)=O [Example 288, N-[2-(2-Hydroxy-2-methyl-propyl)-6-morpholino-1,1-dioxo-3H-1,2-benzothiazol-5-yl]pyrazolo[1,5-a]pyrimidine-3-carboxamide] | 63 nM
2 | CC(C)(O)[C@H](F)CN1Cc2cc(NC(=O)c3cnn4cccnc34)c(N3CCOCC3)cc2S1(=O)=O [Example 289, N-[2-[(2R)-2-Fluoro-3-hydroxy-3-methyl-butyl]-6-morpholino-1,1-dioxo-3H-1,2-benzothiazol-5-yl]pyrazolo[1,5-a]pyrimidine-3-carboxamide] | 8 nM
3 | CCOP(=O)(OCC)OCC1(C)Cc2cc(NC(=O)c3cnn4cccnc34)c(N3CCOCC3)cc2O1 (stereo not shown) [Example 290, Diethyl ((2-methyl-6-morpholino-5-(pyrazolo[1,5-a]pyrimidine-3-carboxamido)-2,3-dihydrobenzofuran-2-yl)methyl) phosphate] | 180 nM
4 | CC1(C)Cc2cc(NC(=O)c3cnn4cccnc34)c(OC[C@H]3CCCN3CC(F)F)cc2O1 [Example 292, (R)—N-(6-((1-(2,2-Difluoroethyl)pyrrolidin-2-yl)methoxy)-2,2-dimethyl-2,3-dihydrobenzofuran-5-yl)pyrazolo[1,5-a]pyrimidine-3-carboxamide] | 760 nM
5 | CC1(C)Cc2cc(NC(=O)c3cnn4cccnc34)c(OC[C@@H]3C[C@@H]4C[C@@H]4N3CC(F)F)cc2O1 [Example 293, N-(6-(((1S,3S,5S)-2-(2,2-difluoroethyl)-2-azabicyclo[3.1.0]hexan-3-yl)methoxy)-2,2-dimethyl-2,3-dihydrobenzofuran-5-yl)pyrazolo[1,5-a]pyrimidine-3-carboxamide] | 690 nM
6 | CC1(C)Cc2cc(NC(=O)c3cnn4cccnc34)c(OC[C@@H]3[C@H]4CN(CC(F)F)C[C@@H]34)cc2O1 [Example 294, N-(6-(((1R,5S,6R)-3-(2,2-difluoroethyl)-3-azabicyclo[3.1.0]hexan-6-yl)methoxy)-2,2-dimethyl-2,3-dihydrobenzofuran-5-yl)pyrazolo[1,5-a]pyrimidine-3-carboxamide] | 14 nM
7 | CC1(C)Cc2cc(NC(=O)c3cnn4cccnc34)c(OCc3cccnc3)cc2O1 [Example 297, N-(2,2-Dimethyl-6-(pyridin-3-ylmethoxy)-2,3-dihydrobenzofuran-5-yl)pyrazolo[1,5-α]pyrimidine-3-carboxamide] | 23 nM
8 | Cn1cc(COc2cc3c(cc2NC(=O)c2cnn4cccnc24)CC(C)(C)O3)cn1 [Example 300, N-(2,2-Dimethyl-6-((1-methyl-1H-pyrazol-4-yl)methoxy)-2,3-dihydrobenzofuran-5-yl)pyrazolo[1,5-α]pyrimidine-3-carboxamide] | 7 nM
9 | CC1(C)Cc2cc(NC(=O)c3cnn4cccnc34)c(OCc3ccncc3)cc2O1 [Example 301, N-(2,2-Dimethyl-6-(pyridin-4-ylmethoxy)-2,3-dihydrobenzofuran-5-yl)pyrazolo[1,5-α]pyrimidine-3-carboxamide] | 17 nM
10 | CC1(C)Cc2cc(NC(=O)c3cnn4cccnc34)c(OC[C@H]3CNC(=O)C3)cc2O1 [Example 307, N-[2,2-Dimethyl-6-[[(3R)-5-oxopyrrolidin-3-yl]methoxy]-3H-benzofuran-5-yl]pyrazolo[1,5-a]pyrimidine-3-carboxamide] | 32 nM
11 | CC1(C)Cc2cc(NC(=O)c3cnn4cccnc34)c(OC[C@@H]3CNC(=O)C3)cc2O1 [Example 308, N-[2,2-Dimethyl-6-[[(3S)-5-oxopyrrolidin-3-yl]methoxy]-3H-benzofuran-5-yl]pyrazolo[1,5-a]pyrimidine-3-carboxamide] | 9 nM
12 | C[C@@]1(CO)Cc2cc(NC(=O)c3cnn4cccnc34)c(OCC(F)F)cc2O1 [Example 310, (S)-N-(6-(2,2-difluoroethoxy)-2-(hydroxymethyl)-2-methyl-2,3-dihydrobenzofuran-5-yl)pyrazolo[1,5-a]pyrimidine-3-carboxamide] | 23 nM
13 | O=C(Nc1cc2c(cc1N1CCC(CO)CC1)O[C@](CO)(C(F)(F)F)C2)c1cnn2cccnc12 [Example 316, (R)-N-(2-(hydroxymethyl)-6-(4-(hydroxymethyl)piperidin-1-yl)-2-(trifluoromethyl)-2,3-dihydrobenzofuran-5-yl)pyrazolo[1,5-a]pyrimidine-3-carboxamide] | 5.2 nM
14 | O=C(Nc1cc2c(cc1N1CCC(CO)CC1)O[C@@](CO)(C(F)(F)F)C2)c1cnn2cccnc12 [Example 317, (S)-N-(2-(hydroxymethyl)-6-(4-(hydroxymethyl)piperidin-1-yl)-2-(trifluoromethyl)-2,3-dihydrobenzofuran-5-yl)pyrazolo[1,5-a]pyrimidine-3-carboxamide] | 2.4 nM
15 | O=C(Nc1cc2c(cc1N1CCC(F)(CO)CC1)O[C@@](CO)(C(F)(F)F)C2)c1cnn2cccnc12 [Example 319, (S)-N-(6-(4-fluoro-4-(hydroxymethyl)piperidin-1-yl)-2-(hydroxymethyl)-2-(trifluoromethyl)-2,3-dihydrobenzofuran-5-yl)pyrazolo[1,5-a]pyrimidine-3-carboxamide] | 3.1 nM
16 | C[C@]1(CO)Cc2cc(NC(=O)c3cnn4cccnc34)c(N3CCC4(CC3)CNC4=O)cc2O1 [Example 320, (R)-N-(2-(hydroxymethyl)-2-methyl-6-(1-oxo-2,7-diazaspiro[3.5]nonan-7-yl)-2,3-dihydrobenzofuran-5-yl)pyrazolo[1,5-a]pyrimidine-3-carboxamide] | 4.6 nM

The remaining lines, values ahead:

Row | Ki | Compound
17 | 380 nM | CC1(C)Cc2cc(NC(=O)c3cnn4cccnc34)c(OC[C@H]3CCCN3)cc2O1 [Example 291, (R)—N-(2,2-Dimethyl-6-(pyrrolidin-2-ylmethoxy)-2,3-dihydrobenzofuran-5-yl)pyrazolo[1,5-a]pyrimidine-3-carboxamide]
18 | 8.2 nM | CC1(C)Cc2cc(NC(=O)c3cnn4cccnc34)c(OC[C@H]3[C@@H]4CNC[C@@H]43)cc2O1 [Example 295, N-(6-(((1R,5S,6R)-3-azabicyclo[3.1.0]hexan-6-yl)methoxy)-2,2-dimethyl-2,3-dihydrobenzofuran-5-yl)pyrazolo[1,5-a]pyrimidine-3-carboxamide]
19 | 18 nM | CC1(C)Cc2cc(NC(=O)c3cnn4cccnc34)c(OCC3CCOC3)cc2O1 (stereo not drawn) [Example 296, N-(2,2-Dimethyl-6-((tetrahydrofuran-3-yl)methoxy)-2,3-dihydrobenzofuran-5-yl)pyrazolo[1,5-α]pyrimidine-3-carboxamide]
20 | 7 nM | CC1(C)Cc2cc(NC(=O)c3cnn4cccnc34)c(OCC3CC3)cc2O1 [Example 298, N-(6-(Cyclopropylmethoxy)-2,2-dimethyl-2,3-dihydrobenzofuran-5-yl)pyrazolo[1,5-α]pyrimidine-3-carboxamide]
21 | 31 nM | CC1(COc2cc3c(cc2NC(=O)c2cnn4cccnc24)CC(C)(C)O3)COC1 [Example 299, N-(2,2-Dimethyl-6-((3-methyloxetan-3-yl)methoxy)-2,3-dihydrobenzofuran-5-yl)pyrazolo[1,5-α]pyrimidine-3-carboxamide]
22 | 11 nM | CC1(C)Cc2cc(NC(=O)c3cnn4cccnc34)c(OCC(F)F)cc2O1 [Example 302, N-(6-(2,2-Difluoroethoxy)-2,2-dimethyl-2,3-dihydrobenzofuran-5-yl)pyrazolo[1,5-α]pyrimidine-3-carboxamide]
23 | 720 nM | CN1CCCC(Oc2cc3c(cc2NC(=O)c2cnn4cccnc24)CC(C)(C)O3)C1 (stereo not drawn) [Example 304, N-(2,2-Dimethyl-6-((1-methylpiperidin-3-yl)oxy)-2,3-dihydrobenzofuran-5-yl)pyrazolo[1,5-α]pyrimidine-3-carboxamide]
24 | 29 nM | CC1(C)Cc2cc(NC(=O)c3cnn4cccnc34)c(OC[C@@H]3CCNC(=O)C3)cc2O1 [Example 305]
25 | 52 nM | CC1(C)Cc2cc(NC(=O)c3cnn4cccnc34)c(OC[C@H]3CCNC(=O)C3)cc2O1 [Example 306, (S)-N-(2,2-Dimethyl-6-((2-oxopiperidin-4-yl)methoxy)-2,3-dihydrobenzofuran-5-yl)pyrazolo[1,5-α]pyrimidine-3-carboxamide]
26 | 15 nM | CC1(C)Cc2cc(NC(=O)c3cnn4cccnc34)c(OCC3CCNCC3)cc2O1 [Example 309, N-(2,2-Dimethyl-6-(piperidin-4-ylmethoxy)-2,3-dihydrobenzofuran-5-yl)pyrazolo[1,5-α]pyrimidine-3-carboxamide]
27 | 10 nM | C[C@]1(CO)Cc2cc(NC(=O)c3cnn4cccnc34)c(OCC(F)F)cc2O1 [Example 311, (R)-N-(6-(2,2-difluoroethoxy)-2-(hydroxymethyl)-2-methyl-2,3-dihydrobenzofuran-5-yl)pyrazolo[1,5-a]pyrimidine-3-carboxamide]
28 | 73 nM | CC(C)(O)[C@]1(C)Cc2cc(NC(=O)c3cnn4cccnc34)c(O[C@H]3CC[C@@H](O)CC3)cc2O1 [Example 312, N-[(2S)-6-(cis-4-Hydroxycyclo-hexoxy)-2-(1-hydroxy-1-methyl-ethyl)-2-methyl-3H-benzofuran-5-yl]pyrazolo[1,5-a]pyrimidine-3-carboxamide]
29 | 490 nM | CC(C)(O)[C@@]1(C)Cc2cc(NC(=O)c3cnn4cccnc34)c(O[C@H]3CC[C@@H](O)CC3)cc2O1 [Example 313, N-[(2R)-6-(cis-4-Hydroxycyclo-hexoxy)-2-(1-hydroxy-1-methyl-ethyl)-2-methyl-3H-benzofuran-5-yl]pyrazolo[1,5-a]pyrimidine-3-carboxamide]
30 | 65 nM | CC(C)(O)[C@]1(C)Cc2cc(NC(=O)c3cnn4cccnc34)c(O[C@H]3CC[C@H](O)CC3)cc2O1 [Example 314, N-[(2S)-6-(trans-4-Hydroxycyclo-hexoxy)-2-(1-hydroxy-1-methyl-ethyl)-2-methyl-3H-benzofuran-5-yl]pyrazolo[1,5-a]pyrimidine-3-carboxamide]
31 | 520 nM | CC(C)(O)[C@@]1(C)Cc2cc(NC(=O)c3cnn4cccnc34)c(O[C@H]3CC[C@H](O)CC3)cc2O1 [Example 315, N-[(2R)-6-(trans-4-Hydroxycyclo-hexoxy)-2-(1-hydroxy-1-methyl-ethyl)-2-methyl-3H-benzofuran-5-yl]pyrazolo[1,5-a]pyrimidine-3-carboxamide]
